Experimental data taken from US20240139223A1, “SOY ISOFLAVONES FOR ASTHMA PREVENTION” (University of South Florida, priority 2021, published 2024).

What was measured:
[1] = test system: PAI-1 production in normal human bronchial epithelial (NHBE) cells; experiment: TGF-β1-induced PAI-1 gene expression and protein production in NHBE cells (real-time PCR, ELISA); assay type: cell-based; conditions: for TGF-β1-induced PAI-1 protein production: 6 hours, NHBE
Procedure: Normal human bronchial epithelial (NHBE) cells were cultured, as previously described in Cho S H, Lee S H, Kato A, Takabayashi T, Kulka M, Shin S C, et al. Cross-talk between human mast cells and bronchial epithelial cells in plasminogen activator inhibitor-1 production via transforming growth factor-b1. Am J Respir Cell Mol Biol 2015; 52:88-95, herein incorporated by reference in its entirety into this disclosure. […] Cell pellets were used for real-time PCR, and cell-culture supernatants were used for PAI-1 protein ELISA.
The PAI-1 concentration in the blood of subjects and supernatants of NHBE cells was measured in duplicate by means of ELISA (Assay Pro, St Charles, Mo), as previously described in Cho et al. 2015, herein incorporated by reference in its entirety into this disclosure. For mRNA analysis of PAI-1 (Hs00167155_m1), quantitative real-time PCR was performed with the ViiA 7 Real-Time PCR System (Applied Biosystems, Foster City, Calif). Expression of glyceraldehyde-3-phosphate dehydrogenase (GAPDH; Hs02786624_g1) was used as an internal control for normalization. Cycling conditions were as follows: 50° C. for 2 minutes (hold) for 1 cycle, 95° C. for 10 minutes (hold) for 1 cycle, and 95° C. for 15 seconds and 60° C. for 1 minute (cycling) for 40 cycles. Relative gene expression was calculated by using the comparative 2^−ΔΔCT method.
To investigate the cellular mechanism of the soy isoflavone/PAI-1 link, the inventors treated cultured NHBE cells with TGF-β1 (2 ng/mL) for 6 hours with and without genistein pretreatment. There was a significant increase in PAI-1 mRNA and protein production (about 10-fold) after adding TGF-β1 (FIG. 1). […] Soy isoflavones reduce asthma exacerbation in high PAI-1 producing genotype. (FIG. 2)
There was a significant increase of the PAI-1 mRNA and protein production (about 10-fold) after adding the TGF-β1 (FIG. 5).

[2] = test system: murine model of asthma (BALB/c mice); experiment: Airway hyperresponsiveness (total respiratory system resistance, FlexiVent) in OVA murine model of asthma; assay type: in vivo, mouse; conditions: summary
Procedure: Eight-week-old BALB/c mice were purchased from The Jackson Lab and housed in standard laboratory conditions (12/12-h light/dark cycle, 22-24° C., 40-60% humidity). Forty female mice were divided into four groups (namely, OVA+Veh, OVA+Bio300, PBS+Veh, PBS+Bio300). Genistein (Bio300, Humanetics Corp.) was administered to two of the groups in conjunction with either OVA or PBS. The mice in each group (n=10) were equally divided into two cages (5 mice/cage) to provide appropriate space for the mice. […]
From Day 14 to Day 28, the OVA+Bio300 and PBS+Bio300 groups received Bio300 (100 ul) by oral gavage every other day. […] On Day 29, airway hyperresponsiveness (AHR) was assessed and tissues were obtained for further analysis.
All mice were anesthetized with ketamine, tracheostomized, and mechanically ventilated with a FlexiVent system (SCIREQ, Flexivent, Scireq Inc., Montreal, Canada) as described in Choi et al., incorporated by reference in its entirety herein. […] Volume changes due to thoracic expansion and alterations in tracheal pressure were measured in response to challenges with increasing concentrations of methacholine (3, 6, 12, 25, and 50 mg/mL) and reported as total respiratory system resistance (Rrs).

[3] = test system: pDCs; conditions: cited from earlier work
[4] = test system: human rhinovirus (HRV); conditions: compared with guideline-driven care alone; cited from earlier work

Compound: O=c1c(-c2ccc(O)cc2)coc2cc(O)cc(O)c12 [genistein]
- PAI-1 production from human bronchial EC and mast cells ([1]; FIG. 5 legend): significantly reduces
- TGF-β1-induced PAI-1 gene expression and protein production ([1]; NHBE cells, genistein pretreatment): significantly reduced
- TGF-β1-induced PAI-1 protein production ([1]; genistein 1 μM pretreatment, TGF-β1 2 ng/ml): 360700 ± 10500 pg/mL
- TGF-β1-induced PAI-1 protein production ([1]; genistein 5 μM pretreatment, TGF-β1 2 ng/ml): 306.0 ± 5.3 pg/mL
- TGF-β1-induced PAI-1 protein production ([1]; genistein 5 mmol/L pretreatment, TGF-β1 2 ng/mL): 306.0 ± 5.3 pg/mL
- Allergic inflammation and airway hyperreactivity [2]: reduced allergic inflammation and improved airway hyperreactivity

Compound: TGF-β1: recombinant human TGF-β1 (R&D Systems), stimulus of PAI-1 production [reference compound]
- Increase in PAI-1 mRNA and protein production ([1]; NHBE cells, TGF-β1 2 ng/mL for 6 hours): about 10 fold

Compound: omalizumab: costly biological agent blocking IgE, administered by injection
- Interferon alpha production from pDCs ([3]; ex vivo and in vivo treatment): restored
- Reduction of FcεRIα expression on pDCs ([3]; omalizumab treatment, previous study): about 57%
- Duration of HRV infections, viral shedding, and risk of HRV-related illness [4]: decreased
